Data: paper PMC12015759, “A humanized Gs-coupled DREADD for circuit and behavior modulation” (Frontiers in Cellular Neuroscience, 2025)

Legend:
PD mice [1] = assay: Rotarod test in 6-OHDA PD mice with bilateral AAV8R12-G88P7-hM3Ds-2A-EYFP; assay type: in vivo, mouse; conditions: CNO treatment
Procedure: (§1) Animals were anesthetized via intraperitoneal injection of pentobarbital sodium (Sigma) and placed into a stereotactic frame (RWD Instruments). An incision was made to expose the skull and locate the site above the SNr (from bregma: AP –3.4 mm, ML 1.3 mm, DV –4.8 mm). A hole in the skull was drilled above the SNr using an electrodrill (RWD Instruments). The AAV8R12-G88P7-hM3Ds-2A-EYFP vector (200 nL volume) was injected using a 10 μL 33-Gauge Hamilton syringe at a rate of 20 nL/min. The syringe was withdrawn 10 min after finishing injection. Behavioral experiments are performed at least 3 weeks after virus injection.
(§2) A PD mouse model was generated using 6-OHDA. Desipramine (Sigma) was administrated (25 mg/kg) via intraperitoneal injection 30 min before a 6-OHDA injection. The stereotactic injection procedure was identical to the AAV injection described above. A volume of 800 nL 6-OHDA (5 mg/mL) was injected into each side of striatum (from bregma: AP 0.5 mm, ML ±1.5 mm, DV –3.2 mm) at a rate of 100 nL/min. One week after 6-OHDA lesions were generated, AAV injections were administered, and behavioral tests were conducted 3 weeks after AAV injections.
After 3 days of habituation to the environment and operator, the mice were placed on a suspended rod apparatus (Xinruan) and trained at speeds of 10, 20, 30 and 40 rpm/min for 2 days. […]

PD mice [2] = assay: Open field test in 6-OHDA PD mice with bilateral AAV8R12-G88P7-hM3Ds-2A-EYFP; assay type: in vivo, mouse; conditions: CNO 0.3 mg/kg
Procedure: as §1
as §2, with “One week after 6-OHDA lesions were generated, AAV injections were administered, and behavioral tests were conducted 3 weeks after AAV injections.” left out
Mice were tested in an open field box arena with length, width and height of 50 × 50 × 50 cm. […] The animals were placed into the test box 30 min after injection and video was recorded for 10 min. The number of rotations, distance traveled, and time spent immobile were then quantified using Anymaze software and the video recordings.

hM3Ds-M5 (K406R) = hM3Ds-M5 (K406R) (Homo sapiens, UniProt P20309, A178S/A239G/A490L/DEL258-409/DEL413-482/I254V/INS485[…]/K179L/K183A/K256R/K487Q/K566R/L174F/L483Q/R172S/R177Q/R180L/T175R/T182R/Y149C/Y255F); conditions: CNO at 10 μM, compared to hM3Ds
hM3Ds-M5 (K406R), sequence (P20309 with tags, fused parts or gaps with the stated changes): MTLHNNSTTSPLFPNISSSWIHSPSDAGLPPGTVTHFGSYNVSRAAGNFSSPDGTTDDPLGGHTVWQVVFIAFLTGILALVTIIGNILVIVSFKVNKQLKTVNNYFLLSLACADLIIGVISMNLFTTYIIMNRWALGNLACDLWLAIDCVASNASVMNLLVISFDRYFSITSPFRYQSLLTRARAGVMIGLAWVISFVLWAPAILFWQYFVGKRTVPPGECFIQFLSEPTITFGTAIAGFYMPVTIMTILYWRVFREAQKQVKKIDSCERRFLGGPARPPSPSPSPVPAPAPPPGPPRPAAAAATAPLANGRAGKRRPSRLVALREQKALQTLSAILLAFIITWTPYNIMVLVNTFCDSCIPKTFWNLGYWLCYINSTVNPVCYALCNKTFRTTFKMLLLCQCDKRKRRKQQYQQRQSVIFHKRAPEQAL
Procedure: (§3) As for the cAMP assay, HEK293T cells (ATCC) were seeded in 6-well plate with DMEM containing 10% fetal bovine serum. Upon reaching ~80% confluency, cells were transfected with DREADDs plasmids (30 ng), pCRE-Luc (GeneBank accession: AF053461.1, 600 ng) and pRL-SV40 (GeneBank accession: AF025845.2, 150 ng). The following day, cells were redistributed from 6-well plates to white opaque 96-well plates pre-coated with poly-L-lysine (Solarbio).
(§4) The plates were then placed back in the cell incubator for 6 h. The cAMP level was detected using a Dual Glo Luciferase Reporter Gene Assay Kit (YEASEN) following the manufacturer’s protocol. The data of each well was presented as the ratio of firefly luciferase luminescence to renilla luciferase luminescence.

hM3Ds-M6 (K407R) = hM3Ds-M6 (K407R) (Homo sapiens, UniProt P20309, A178S/A239G/A490L/DEL258-409/DEL413-482/I254V/INS485[…]/K179L/K183A/K256R/K487Q/K567R/L174F/L483Q/R172S/R177Q/R180L/T175R/T182R/Y149C/Y255F); conditions: CNO at 10 μM, compared to hM3Ds
hM3Ds-M6 (K407R), sequence (P20309 with tags, fused parts or gaps with the stated changes): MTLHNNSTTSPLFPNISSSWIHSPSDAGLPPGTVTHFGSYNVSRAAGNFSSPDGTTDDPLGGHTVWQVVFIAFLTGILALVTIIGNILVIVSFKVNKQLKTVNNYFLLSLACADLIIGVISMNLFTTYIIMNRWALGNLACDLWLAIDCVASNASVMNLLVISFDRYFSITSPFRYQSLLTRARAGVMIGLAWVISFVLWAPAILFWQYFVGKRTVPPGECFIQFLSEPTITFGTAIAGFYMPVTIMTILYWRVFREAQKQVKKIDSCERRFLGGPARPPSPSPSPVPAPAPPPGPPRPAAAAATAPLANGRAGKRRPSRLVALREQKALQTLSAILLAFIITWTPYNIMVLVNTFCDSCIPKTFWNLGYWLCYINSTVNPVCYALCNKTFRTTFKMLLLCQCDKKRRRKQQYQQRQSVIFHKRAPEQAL
Procedure: as §3, §4

hM3Ds-M3 (D404G) = hM3Ds-M3 (D404G) (Homo sapiens, UniProt P20309, A178S/A239G/A490L/D564G/DEL258-409/DEL413-482/I254V/INS485[…]/K179L/K183A/K256R/K487Q/L174F/L483Q/R172S/R177Q/R180L/T175R/T182R/Y149C/Y255F); conditions: CNO at 10 μM, compared to hM3Ds
hM3Ds-M3 (D404G), sequence (P20309 with tags, fused parts or gaps with the stated changes): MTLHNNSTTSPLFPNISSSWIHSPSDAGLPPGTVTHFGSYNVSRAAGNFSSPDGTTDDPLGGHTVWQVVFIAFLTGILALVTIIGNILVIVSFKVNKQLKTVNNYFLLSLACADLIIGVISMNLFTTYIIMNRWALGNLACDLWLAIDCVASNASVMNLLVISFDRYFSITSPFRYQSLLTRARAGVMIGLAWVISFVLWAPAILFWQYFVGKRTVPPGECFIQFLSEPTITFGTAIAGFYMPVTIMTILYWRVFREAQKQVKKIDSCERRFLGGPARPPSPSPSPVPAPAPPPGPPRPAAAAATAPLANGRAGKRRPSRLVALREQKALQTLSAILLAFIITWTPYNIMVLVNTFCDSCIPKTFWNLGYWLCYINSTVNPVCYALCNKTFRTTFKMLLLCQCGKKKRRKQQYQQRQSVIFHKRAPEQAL
Procedure: as §3, §4

hM3Ds-M4 (K405R) = hM3Ds-M4 (K405R) (Homo sapiens, UniProt P20309, A178S/A239G/A490L/DEL258-409/DEL413-482/I254V/INS485[…]/K179L/K183A/K256R/K487Q/K565R/L174F/L483Q/R172S/R177Q/R180L/T175R/T182R/Y149C/Y255F); conditions: CNO at 10 μM, compared to hM3Ds
hM3Ds-M4 (K405R), sequence (P20309 with tags, fused parts or gaps with the stated changes): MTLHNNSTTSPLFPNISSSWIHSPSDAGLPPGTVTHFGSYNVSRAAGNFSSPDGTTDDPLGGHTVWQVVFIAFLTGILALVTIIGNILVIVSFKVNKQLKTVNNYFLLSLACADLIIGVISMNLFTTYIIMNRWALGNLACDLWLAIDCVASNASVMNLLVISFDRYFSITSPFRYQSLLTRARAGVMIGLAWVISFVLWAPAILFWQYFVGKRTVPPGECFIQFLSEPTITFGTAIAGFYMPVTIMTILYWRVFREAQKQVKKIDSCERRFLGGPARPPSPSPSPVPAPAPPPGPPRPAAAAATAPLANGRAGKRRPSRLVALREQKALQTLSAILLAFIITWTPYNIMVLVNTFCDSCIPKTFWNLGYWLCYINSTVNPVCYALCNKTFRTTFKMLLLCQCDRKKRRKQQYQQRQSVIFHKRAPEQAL
Procedure: as §3, §4

hM3Ds-M2 (Q402R) = hM3Ds-M2 (Q402R) (Homo sapiens, UniProt P20309, A178S/A239G/A490L/DEL258-409/DEL413-482/I254V/INS485[…]/K179L/K183A/K256R/K487Q/L174F/L483Q/Q562R/R172S/R177Q/R180L/T175R/T182R/Y149C/Y255F); conditions: CNO at 10 μM, compared to hM3Ds
hM3Ds-M2 (Q402R), sequence (P20309 with tags, fused parts or gaps with the stated changes): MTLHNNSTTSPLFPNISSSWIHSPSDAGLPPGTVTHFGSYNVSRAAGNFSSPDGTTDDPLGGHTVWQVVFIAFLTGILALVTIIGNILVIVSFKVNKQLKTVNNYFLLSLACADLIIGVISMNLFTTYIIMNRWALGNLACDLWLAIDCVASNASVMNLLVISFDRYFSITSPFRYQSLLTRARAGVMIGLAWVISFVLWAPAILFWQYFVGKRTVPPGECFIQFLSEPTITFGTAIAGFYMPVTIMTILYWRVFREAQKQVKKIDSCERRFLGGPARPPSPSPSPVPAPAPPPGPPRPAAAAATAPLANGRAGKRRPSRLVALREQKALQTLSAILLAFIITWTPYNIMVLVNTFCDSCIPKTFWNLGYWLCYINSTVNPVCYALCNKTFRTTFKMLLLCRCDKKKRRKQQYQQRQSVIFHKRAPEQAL
Procedure: as §3, §4

hM3Ds [3] = biological target: T1, hM3Ds (Homo sapiens, UniProt P20309, A178S/A239G/A490L/DEL258-409/DEL413-482/I254V/INS485[…]/K179L/K183A/K256R/K487Q/L174F/L483Q/R172S/R177Q/R180L/T175R/T182R/Y149C/Y255F)
T1 sequence (P20309 with tags, fused parts or gaps Y149C/R172S/L174F/T175R/R177Q/A178S/K179L/R180L/T182R/K183A/A239G/I254V/Y255F/K256R/DEL258-409/DEL413-482/L483Q/INS485[…]/K487Q/A490L): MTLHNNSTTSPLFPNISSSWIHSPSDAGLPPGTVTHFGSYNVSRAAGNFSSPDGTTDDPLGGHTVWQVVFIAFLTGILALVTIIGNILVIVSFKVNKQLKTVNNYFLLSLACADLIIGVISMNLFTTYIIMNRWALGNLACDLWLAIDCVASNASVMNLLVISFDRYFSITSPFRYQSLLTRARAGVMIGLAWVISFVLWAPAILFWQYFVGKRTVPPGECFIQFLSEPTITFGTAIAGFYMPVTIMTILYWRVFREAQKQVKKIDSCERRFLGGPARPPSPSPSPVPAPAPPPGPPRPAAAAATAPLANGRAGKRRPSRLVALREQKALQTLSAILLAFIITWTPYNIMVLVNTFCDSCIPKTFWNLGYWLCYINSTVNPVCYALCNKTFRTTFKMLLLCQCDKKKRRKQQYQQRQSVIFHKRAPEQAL
Procedure: as §3, §4
(§5) We next examined whether the chemogenetic receptor ligand, CNO, could stimulate hM3-ti23-Ds and hM3Ds and induce up-regulation of cAMP level. We co-transfected HEK293T cells with engineered receptors and the reporter vector, pCRE-Luc, which contains a cAMP response element-driven firefly luciferase (Luc) ([Bokar et al., 1988]); pRL-SV40 encoding renilla luciferase was simultaneously transfected as a transfection efficiency control.

hM3-ti23-Ds = biological target: T2, hM3-ti23-Ds (Homo sapiens, UniProt P20309, A178S/A239G/A490L/D442R/DEL262-438/DEL444-462/DEL467-485/E259S/I254V/INS257[…]/K179L/K183A/K256R/K465M/K487H/L174F/L463M/R172S/R177Q/R180M/T175R/T182R/T258A/Y149C)
T2 sequence (P20309 with tags, fused parts or gaps Y149C/R172S/L174F/T175R/R177Q/A178S/K179L/R180M/T182R/K183A/A239G/I254V/K256R/INS257[…]/T258A/E259S/DEL262-438/D442R/DEL444-462/L463M/K465M/DEL467-485/K487H/A490L): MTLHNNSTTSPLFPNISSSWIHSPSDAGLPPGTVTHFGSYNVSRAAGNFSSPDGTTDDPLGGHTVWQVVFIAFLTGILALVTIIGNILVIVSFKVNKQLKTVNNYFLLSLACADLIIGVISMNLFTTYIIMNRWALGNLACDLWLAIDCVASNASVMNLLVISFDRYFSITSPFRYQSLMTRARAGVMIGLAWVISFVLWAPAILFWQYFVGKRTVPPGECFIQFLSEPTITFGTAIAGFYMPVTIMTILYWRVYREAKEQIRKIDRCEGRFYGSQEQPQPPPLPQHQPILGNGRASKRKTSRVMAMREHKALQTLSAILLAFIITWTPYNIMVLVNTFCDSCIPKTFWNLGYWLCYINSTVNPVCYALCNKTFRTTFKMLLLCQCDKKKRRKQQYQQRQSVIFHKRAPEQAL
Procedure: as §3, §4, §5

hM3Ds [4] = biological target: T1, hM3Ds; assay: Ca2+ imaging (GCaMP6s) in hM3Ds-transfected HEK293T cells; assay type: cell-based; set-up: hM3Ds was subcloned into pAAV-CMV-EYFP to replace EYFP; expressed in transfected cells; host or cells: HEK293T; conditions: CNO 10 μM, 10 min
Procedure: As for the Ca^2+ imaging assay, HEK293T cells (ATCC) were seeded in 24-well plate with DMEM containing 10% fetal bovine serum. Upon reaching ~80% confluency, cells were cotransfected with pAAV-CAG-GCaMP6s (0.1 μg), and pAAV-CMV-hM3Ds or pAAV-CMV-hM3Dq (0.1 μg).
48 h after transfection, the medium in each well was replaced with 400 μL CNO (10 μM) solution, or with 400 μL vehicle (medium only). […] Cell fluorescence were imaged under microscopy and quantified using ImageJ.

rM3Ds = biological target: T3, rM3Ds (Rattus norvegicus, UniProt P08483, A177S/A238G/A489L/DEL261-437/DEL441-478/E258S/I253V/I483M/INS256[…]/K178L/K182A/K255R/K484R/K486H/L173F/L482A/M480V/R171S/R176Q/R179M/S481M/T174R/T181R/T257A/Y148C); assay: cAMP assay (CRE-luciferase reporter) in HEK293T cells expressing rM3Ds; assay type: cell-based; conditions: CNO on rM3Ds, HEK293T, 6 h, firefly/renilla luciferase ratio
T3 construct: host or cells: HEK293T
T3 sequence (P08483 with tags, fused parts or gaps Y148C/R171S/L173F/T174R/R176Q/A177S/K178L/R179M/T181R/K182A/A238G/I253V/K255R/INS256[…]/T257A/E258S/DEL261-437/DEL441-478/M480V/S481M/L482A/I483M/K484R/K486H/A489L): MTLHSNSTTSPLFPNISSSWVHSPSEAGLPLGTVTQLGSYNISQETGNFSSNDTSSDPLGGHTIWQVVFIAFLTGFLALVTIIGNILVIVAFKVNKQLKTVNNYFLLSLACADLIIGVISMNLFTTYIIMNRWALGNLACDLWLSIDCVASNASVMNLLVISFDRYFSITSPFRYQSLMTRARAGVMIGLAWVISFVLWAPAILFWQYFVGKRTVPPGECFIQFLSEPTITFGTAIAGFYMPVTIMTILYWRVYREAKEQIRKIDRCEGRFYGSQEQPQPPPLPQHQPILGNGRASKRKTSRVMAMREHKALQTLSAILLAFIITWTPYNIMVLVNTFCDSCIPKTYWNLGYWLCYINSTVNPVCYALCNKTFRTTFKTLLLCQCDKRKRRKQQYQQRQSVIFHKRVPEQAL

mice = assay: Open field test after unilateral AAV8R12-G88P7-hM3Ds-2A-EYFP injection into the SNr; assay type: in vivo, mouse; conditions: CNO 0.3 mg/kg intraperitoneal vs saline, unilateral hM3Ds in D1-MSNs
Procedure: as §1
Mice were tested in an open field box arena with length, width and height of 50 × 50 × 50 cm. The animals underwent 3 days of habituation to the environment and experimenter and 1 day of habituation to the test apparatus. On the test day, the animals were injected with saline or CNO (0.3 mg/kg). The animals were placed into the test box 30 min after injection and video was recorded for 10 min. The number of rotations, distance traveled, and time spent immobile were then quantified using Anymaze software and the video recordings.

[5] = system: dopaminergic neurons in the SNc; assay: 6-OHDA lesion, TH staining of striatum and SNc; assay type: in vivo, mouse; conditions: bilateral injection into the striatum, 800 nL of 5 mg/mL per side, 1 week
Procedure: as §2
Animals were deeply anesthetized and perfused with saline and 4% paraformaldehyde perfusion through left ventricle. The mouse brains were extracted, fixed overnight, and then dehydrated with 30% sucrose solution. After being embedded in OCT (Sakura), brain sections were prepared at 40 μm thickness by a cryostat (Leica, CM1950).
Brain slices were blocked and permeabilized with PBS containing 5% bovine serum albumin (BSA) and 0.3% Triton X-100 for 30 min. The slices were then incubated with anti-GFP (Abcam, ab13970) or anti-TH (Abcam, ab76442), diluted to 1:500 in PBS containing 5% BSA at 4°C overnight. The sections were then incubated with diluted Alexa Fluor 488 goat anti-chicken IgG antibody (Thermo Fisher, A-11039) or Alexa Fluor 594 donkey anti-mouse IgG antibody (Thermo Fisher, A32744) at room temperature for 1 h. […]

Structure (SMILES)	latency to fall (rotarod) (PD mice [1])	mean distance traveled (PD mice [2])	time spent immobile (PD mice [2])	fold change in luciferase activity (hM3Ds-M5 (K406R))	fold change in luciferase activity (hM3Ds-M6 (K407R))	fold change in luciferase activity (hM3Ds-M3 (D404G))	fold change in luciferase activity (hM3Ds-M4 (K405R))	fold change in luciferase activity (hM3Ds-M2 (Q402R))	fold change in luciferase activity (hM3Ds [3]; CNO at 10 μM, hM3Ds, compared to rM3Ds)	EC50 (hM3Ds [3]; CNO on hM3Ds, HEK293T, 6 h, firefly/renilla luciferase ratio) [nM]	cAMP response (hM3Ds [3]; hM3Ds, HEK293T)	fold change in luciferase activity (hM3-ti23-Ds; CNO at 10 μM, compared to rM3Ds and hM3Ds)	cAMP response (hM3-ti23-Ds; HEK293T)	calcium rise (hM3Ds [4])	EC50 (rM3Ds) [nM]	contralateral rotation (mice)	total distance traveled (mice)	dopaminergic neurons in the SNc and dopaminergic innervation in the striatum [5]
C[N+]1([O-])CCN(C2=Nc3cc(Cl)ccc3Nc3ccccc32)CC1 [CNO, clozapine N-oxide]	partial recovery of motor skills	reversed	reversed	reduced luciferase activity compared to hM3Ds	reduced luciferase activity compared to hM3Ds	reduced luciferase activity compared to hM3Ds	reduced luciferase activity compared to hM3Ds	reduced luciferase activity compared to hM3Ds	comparable fold change	1.26 ± 0.2	dose-dependently increased the cAMP response	lower fold change	dose-dependently increased the cAMP response	did not induce detectable levels of calcium rise	2.39 ± 0.25	more contralateral rotation	no difference	
NCCc1cc(O)c(O)cc1O [6-OHDA, 6-hydroxydopamine]																		almost complete loss
